# According to the OPERA property sets (Mansouri et al. 2018):
Structure (SMILES),melting point [°C],boiling point [°C],log10 vapour pressure (mmHg),log10 Koc (L/kg),ready biodegradability,log10 Henry constant (atm·m³/mol),log10 biodegradation half-life (days),log10 Koa
O=C(O)c1cc(F)ccc1F,133,,,,,,,
CNC1CCCCC1,,147,,,,,,
COc1ccc2c(c1OC)C(=O)O[C@@H]2[C@H]1c2c(cc3c(c2OC)OCO3)CCN1C,176,,,,,,,
C1CCN(CCN2CCCCC2)CC1,-0.5,265,,,,,,
CCC(C)COC (stereo unspecified),,90,,,,,,
C=C(c1ccccc1)c1ccccc1,8.2,277,-1.88,,,,,
CC(=O)c1ccc(O)c(O)c1O,173,,,,,,,
OC[C@H]1O[C@@](CO)(O[C@H]2O[C@H](CO)[C@@H](O)[C@H](O)[C@H]2O)[C@@H](O)[C@@H]1O,186,,,,,,,
Cc1occc1C(=O)Nc1ccccc1,110,,-6.82,2.48,,,,
CCNc1ccc2ccccc2c1,236,316,,,,,,
CCCCB(CCCC)CCCC,,209,,,,,,
CCCCCCCCCCCCCCCCCCN=C=O,20,300,,,not readily biodegradable,,,
Cc1c(Cl)ccc(OC(C)C(O)=Nc2ccccc2)c1Cl (stereo unspecified),146,,,,,,,
CC(C)OC(=O)C(C)(C)Oc1ccc(C(=O)c2ccc(Cl)cc2)cc1,80.5,,,,,,,
FC(F)(F)C(F)(Cl)C(F)(F)Cl (stereo unspecified),,34.1,,,,,,
CC[C@H]1C[N@@]2CC[C@H]1C[C@H]2[C@H](O)c1ccnc2ccc(OC)cc12,170,,,,,,,
CC(C)CC(=O)O,-29.3,176,-0.356,,readily biodegradable,-6.08,,
CC(Cl)C(Cl)(Cl)Cl (stereo unspecified),-64,152,,,,,,
O=c1[nH]ncc2ccccc12,188,,,,,,,
CCCC(C)CCC(C)C (stereo unspecified),,158,,,,,0.301,
C[Si](C)(C)N[Si](C)(C)C,,125,1.14,,,,,
CC1=CCC(O)(C(C)C)CC1 (stereo unspecified),,209,,,,,,
CCCCC(=O)C(C)C,,158,,,,,,

Structure (SMILES),melting point [°C],boiling point [°C],log10 vapour pressure (mmHg),log10 Koc (L/kg),ready biodegradability,log10 Henry constant (atm·m³/mol),log10 biodegradation half-life (days),log10 Koa
CCCCOC=O,-91.5,106,1.46,,,,,
CCOC(=O)[C@H](C)Cl,,147,0.557,,,,,
O=C(Nc1ccccc1)NC1CCCCC1,,,,2.07,,,,
O=C(CBr)c1ccc(Br)cc1,111,,,,,,,
CCC(CC)COC(=O)CCCCCCCC(=O)OCC(CC)CC,-45,,,,,,,
Clc1cccc(C(Cl)(Cl)Cl)n1,63,,-2.32,2.62,,,,
Clc1ccc2oc3c(Cl)c(Cl)c(Cl)c(Cl)c3c2c1Cl,,,,,,,,10.9
O=C(Nc1ccccc1)NC1CCCC1,,,,1.93,,,,
CC(=O)c1ccc(O)c(O)c1,116,,,,,,,
CCCCCCCN,-18,156,0.438,,,,,
C=CCC(C(C)=O)C(C)=O,,199,,,,,,
C=Cn1c2ccccc2c2ccccc21,65,,,,,,,
CC(C)(Oc1ccc(Cl)cc1)C(=O)O,118,,,,,,,
CCCOCC(C)OCC(C)O (stereo unspecified),7.08,212,,,,,,
Brc1cc2c(cc1Br)Oc1ccccc1O2,158,,-5.92,,,,,
O=[N+]([O-])c1ccc(C(F)(F)F)cc1,39,,,,,,,
Cc1ncc(CO)c(C=O)c1O.Cl,165,,,,,,,
CCCCCCCCCCCCCCCCCC(=O)OCCOCCOCCOCCO,40,,,,,,,
CCN1C[C@]2(COC)[C@H](O)C[C@H](OC)[C@]34C1[C@H]([C@H](OC)[C@H]23)[C@]1(O)[C@H]2[C@@H](O)[C@](O)(C[C@H]24)[C@@H](OC)[C@@H]1O,132,,,,,,,
CBr,-93.7,3.5,3.21,1.34,not readily biodegradable,-2.13,,
CCCCCCCOO,35.5,,,,,,,
C=C(C)c1cccc(C)c1,,185,,,,,,
CCCCC1C(=O)NN(c2ccccc2)C1=O (stereo unspecified),102,,,,,,,

Structure (SMILES),melting point [°C],boiling point [°C],log10 vapour pressure (mmHg),log10 Koc (L/kg),ready biodegradability,log10 Henry constant (atm·m³/mol),log10 biodegradation half-life (days),log10 Koa
N[C@@H]1CONC1=O,140,,,,,,,
CCCCNC(=O)c1ccc(Cl)cc1O,91.5,,,,,,,
CC(=O)I,,108,1.51,,,,,
Nc1cccc2c(O)nnc(O)c12,330,,,,,,,
O=C1c2ccccc2C(=O)C1C(=O)C(c1ccccc1)c1ccccc1,146,,-9.99,,,,,
Cc1ncc(CO)c(C=O)c1O,165,,,,readily biodegradable,,,
CC(C)OC(=O)C1(S(=O)(=O)c2ccc([N+](=O)[O-])cc2)CC1,123,,,,,,,
C=CC(=O)O,13.5,141,0.599,,readily biodegradable,,,
Clc1cc(Cl)c(C(Cl)Cl)cc1Cl,,280,,,,,,
CS,-123,5.9,3.18,,readily biodegradable,,,
c1ccc(-c2nc(-c3ccccc3)c(-c3ccccc3)[nH]2)cc1,275,,,,,,,
O=C(O)c1c(F)c(F)c(F)c(F)c1F,101,220,,,,,,
Brc1cnc2ccccc2c1,13.3,275,,,,,,
OC1CCCC1C1CCCC1 (stereo unspecified),20,236,,,,,,
CC(C)[C@@H](C)/C=C/[C@@H](C)[C@H]1CC[C@H]2/C(=C/C=C3\C[C@@H](O)CC[C@@H]3C)CCC[C@]12C,126,,,,,,,
CC(C)COCOCC(C)C,,166,,,,,,
C1CC2OC2CC1C1CO1 (stereo unspecified),,227,,,not readily biodegradable,,,
CCOCC(O)CO (stereo unspecified),,222,,,,,,
C=CC(=O)OCCN(CC)CC,-60,,,,,,,
CCCCc1c(C)nc(NCC)nc1OS(=O)(=O)N(C)C,50.5,,-6.12,,,,,
CC(C)(N=C=O)c1ccc(C(C)(C)N=C=O)cc1,,,-3.12,,,,,
CC(=O)NCCS,6.5,,,,,,,
